This is an account of results in patent US9453034B2, “C2-azaspiro iminothiazine dioxides as BACE inhibitors, compositions, and their use” (Merck Sharp & Dohme Corp., priority 2013, dated 2016).

The target of test [1] is purified human autoBACE-2 (Homo sapiens (Human), UniProt Q9Y5Z0). Description: BACE-2 Assay (BACE-HTRF assay). Format: biochemical. As to conditions: Ki calculated from IC50 using the Cheng-Prusoff equation; QSY7-EISEVNLDAEFC-Eu-amide substrate, pH 5.0; read-out: BACE2 Ki. The protocol:
Inhibitor IC50s at purified human autoBACE-2 are determined in a time-resolved endpoint proteolysis assay that measures hydrolysis of the QSY7-EISEVNLDAEFC-Eu-amide FRET peptide substrate (BACE-HTRF assay). BACE-mediated hydrolysis of this peptide results in an increase in relative fluorescence (RFU) at 620 nm after excitation with 320 nm light. Inhibitor compounds, prepared at 3× the desired final concentration in 1×BACE assay buffer (20 mM sodium acetate pH 5.0, 10% glycerol, 0.1% Brij-35) supplemented with 7.5% DMSO are pre-incubated with an equal volume of autoBACE-2 enzyme diluted in 1×BACE assay buffer (final enzyme concentration 1 nM) in black 384-well NUNC plates for 30 minutes at 30° C. The assay is initiated by addition of an equal volume of the QSY7-EISEVNLDAEFC-Eu-amide substrate (200 nM final concentration, Km=8 μM […] for autoBACE-2) prepared in 1×BACE assay buffer supplemented with 7.5% DMSO and incubated for 90 minutes at 30° C. DMSO is present at 5% final concentration in the assay. Following laser excitation of sample wells at 320 nm, the fluorescence signal at 620 nm is collected for 400 ms following a 50 μs delay on a RUBYstar HTRF plate reader (BMG Labtechnologies). Raw RFU data is normalized to maximum (1.0 nM BACE/DMSO) and minimum (no enzyme/DMSO) RFU values. IC50s are determined by nonlinear regression analysis (sigmoidal dose response, variable slope) of percent inhibition data with minimum and maximum values set to 0 and 100 percent respectively. Similar IC50s are obtained when using raw RFU data. The Ki values are calculated from the IC50 using the Cheng-Prusoff equation.

In test [2] the target is soluble human BACE1 catalytic domain (Homo sapiens (Human), UniProt P56817). As to the kind of experiment: BACE1 HTRF FRET Assay. Conditions: Ki calculated from IC50 using the Cheng-Prusoff equation; QSY7-APPswe-Eu substrate, pH 5.0. Format: biochemical. An excerpt:
Reagents: Na^+-Acetate pH 5.0; 1% Brij-35; Glycerol; Dimethyl Sulfoxide (DMSO);
A homogeneous time-resolved FRET assay can be used to determine IC50 values for inhibitors of the soluble human BACE1 catalytic domain. This assay monitors the increase of 620 nm fluorescence that resulted from BACE1 cleavage of an APPswedish APP^swe mutant peptide FRET substrate (QSY7-[…]-Europium-amide). This substrate contains an N-terminal QSY7 moiety that serves as a quencher of the C-terminal Europium fluorophore (620 nm Em). […] Inhibition of BACE1 cleavage of the QSY7-APP^swe-Eu substrate by inhibitors is manifested as a suppression of 620 nm fluorescence.
Reactions are initiated by addition of 10 μl of 600 nM QSY7-APP^swe-Eu substrate (200 nM final) to give a final reaction volume of 30 μl in a 384 well Nunc HTRF plate. The reactions are incubated at 30° C. for 1.5 hours. The 620 nm fluorescence is then read on a Rubystar HTRF plate reader (BMG Labtechnologies) using a 50 millisecond delay followed by a 400 millisecond acquisition time window. Inhibitor IC50 values are derived from non-linear regression analysis of concentration response curves.

For orientation: Ki means a dissociation constant, usually derived from enzyme kinetics or from competition with a known ligand.

Chain of purified human autoBACE-2 (Q9Y5Z0 63-473): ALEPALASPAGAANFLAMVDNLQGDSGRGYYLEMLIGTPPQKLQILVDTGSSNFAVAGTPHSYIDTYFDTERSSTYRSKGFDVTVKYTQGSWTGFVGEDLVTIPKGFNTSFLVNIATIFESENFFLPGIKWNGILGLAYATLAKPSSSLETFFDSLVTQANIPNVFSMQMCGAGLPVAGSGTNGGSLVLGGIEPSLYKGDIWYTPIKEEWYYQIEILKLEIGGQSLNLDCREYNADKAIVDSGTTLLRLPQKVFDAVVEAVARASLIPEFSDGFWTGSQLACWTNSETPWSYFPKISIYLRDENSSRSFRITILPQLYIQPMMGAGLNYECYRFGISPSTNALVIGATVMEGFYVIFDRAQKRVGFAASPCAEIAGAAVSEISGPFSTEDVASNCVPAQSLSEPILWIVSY
Chain of soluble human BACE1 catalytic domain (P56817 75-416): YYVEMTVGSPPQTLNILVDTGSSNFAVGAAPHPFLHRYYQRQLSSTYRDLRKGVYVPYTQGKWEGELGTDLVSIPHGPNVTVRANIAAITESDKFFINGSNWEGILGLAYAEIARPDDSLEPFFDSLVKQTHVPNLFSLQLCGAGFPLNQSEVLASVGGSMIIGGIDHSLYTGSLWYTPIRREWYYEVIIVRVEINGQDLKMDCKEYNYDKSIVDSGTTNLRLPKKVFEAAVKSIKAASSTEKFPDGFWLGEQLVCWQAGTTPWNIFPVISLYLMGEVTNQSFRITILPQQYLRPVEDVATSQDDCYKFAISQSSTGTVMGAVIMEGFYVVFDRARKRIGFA

Regarding `CN1CC2(C1)C(=N)N[C@](C)(c1cc(NC(=O)c3ccc(OC(F)(F)F)cn3)ccc1F)CS2(=O)=O` [Example 6, N-{4-fluoro-3-[(7R)-9-imino-2,7-dimethyl-5,5-dioxido-5-thia-2,8-diazaspiro[3.5]non-7-yl]phenyl}-5-(trifluoromethoxy) pyridine-2-carboxamide], the results for the Ki in test [1] and in test [2] were 10.3 nM and 3.3 nM, respectively.

Take `CN1CC2(C1)C(=N)N[C@](C)(c1cc(NC(=O)c3ccc(C#N)cn3)ccc1F)CS2(=O)=O` [Example 1, (R)-5-cyano-N-(4-fluoro-3-(9-imino-2,7-dimethyl-5,5-dioxido-5-thia-2,8-diazaspiro[3.5]nonan-7-yl)phenyl)picolinamide]: the Ki in test [1] is 1.4 nM; in test [2], 1.7 nM.

Regarding `CN1CC2(C1)C(=N)N[C@](C)(c1cc(NC(=O)c3ccc(OCF)cn3)ccc1F)CS2(=O)=O` [Example 8, N-{4-fluoro-3-[(7R)-9-imino-2,7-dimethyl-5,5-dioxido-5-thia-2,8-diazaspiro[3.5]non-7-yl]phenyl}-5-(fluoromethoxy) pyridine-2-carboxamide], the values for the Ki in test [1] and in test [2] were 1.5 nM and 4.9 nM, respectively.

As to `CN1CCC2(CC1)C(=N)N[C@](C)(c1cc(NC(=O)c3ccc(OCF)cn3)ccc1F)CS2(=O)=O` [Example 32, N-{4-fluoro-3-[(3R)-5-imino-3,9-dimethyl-1,1-dioxido-1-thia-4,9-diazaspiro[5.5]undec-3-yl]phenyl}-5-(fluoromethoxy) pyridine-2-carboxamide], the inhibitory constant (Ki) in test [1] was 11 nM; in test [2] it was 14 nM.

As to `CN1CC2(C1)C(=N)N[C@](C)(c1cc(NC(=O)c3ncc(C#N)cc3C(F)F)ccc1F)CS2(=O)=O` [Example 12b, 5-cyano-3-(difluoromethyl)-N-{4-fluoro-3-[(7R)-9-imino-2,7-dimethyl-5,5-dioxido-5-thia-2,8-diazaspiro [3.5]non-7-yl]phenyl}pyridine-2-carboxamide], the Ki in test [1] is 0.5 nM; in test [2] it was 1.4 nM.

In the case of `COc1ccc(C(=O)Nc2ccc(F)c([C@]3(C)CS(=O)(=O)C4(CN(C(C)=O)C4)C(=N)N3)c2)nc1` [Example 37, (R)—N-(3-(2-acetyl-9-imino-7-methyl-5,5-dioxido-5-thia-2,8-diazaspiro[3.5]nonan-7-yl)-4-fluorophenyl)-5-methoxypicolinamide], the inhibition constant Ki in test [1] is 1.1 nM; in test [2], 1.6 nM.

On to `COc1ccc(C(=O)Nc2ccc(F)c([C@]3(C)CS(=O)(=O)C4(CCN(C)CC4)C(=N)N3)c2)nc1` [Example 27, N-{4-fluoro-3-[(3R)-5-imino-3,9-dimethyl-1,1-dioxido-1-thia-4,9-diazaspiro[5.5]undec-3-yl]phenyl}-5-methoxypyridine-2-carboxamide], for which the Ki in test [1] is 24 nM; in test [2], 35 nM.

As for `COc1ccc(C(=O)Nc2ccc(F)c([C@]3(C)CS(=O)(=O)C4(CN(C)C4)C(=N)N3)c2)nc1` [Example 3, N-{4-fluoro-3-[(7R)-9-imino-2,7-dimethyl-5,5-dioxido-5-thia-2,8-diazaspiro[3.5]non-7-yl]phenyl}-5-methoxypyridine-2-carboxamide], the Ki is 1.6 nM in test [1] and 6.3 nM in test [2].

Consider `CNC(=O)N1CC2(C1)C(=N)N[C@](C)(c1cc(NC(=O)c3ccc(OC)cn3)ccc1F)CS2(=O)=O` [Example 39, (R)-7-(2-fluoro-5-(5-methoxypicolinamido)phenyl)-9-imino-N,7-dimethyl-5-thia-2,8-diazaspiro[3.5]nonane-2-carboxamide 5,5-dioxide], for which the Ki in test [1] is 1.7 nM; in test [2], 7.3 nM.

In the case of `CN1CCC2(CC1)C(=N)N[C@](C)(c1cc(NC(=O)c3ccc(F)cn3)ccc1F)CS2(=O)=O` [Example 26, 5-fluoro-N-{4-fluoro-3-[(3R)-5-imino-3,9-dimethyl-1,1-dioxido-1-thia-4,9-diazaspiro[5.5]undec-3-yl]phenyl}pyridine-2-carboxamide], the inhibitory constant (Ki) in test [1] is 6.4 nM; in test [2], 37 nM.

Regarding `COc1cnc(C(=O)Nc2ccc(F)c([C@]3(C)CS(=O)(=O)C4(CN(C)C4)C(=N)N3)c2)c(C)c1` [Example 9, N-{4-fluoro-3-[(7R)-9-imino-2,7-dimethyl-5,5-dioxido-5-thia-2,8-diazaspiro[3.5]non-7-yl]phenyl}-5-methoxy-3-methylpyridine-2-carboxamide], the Ki in test [1] is 0.9 nM; in test [2], 6.3 nM.

With `COc1ccc(C(=O)Nc2ccc(F)c([C@]3(C)CS(=O)(=O)C4(CN(S(C)(=O)=O)C4)C(=N)N3)c2)nc1` [Example 38, (R)—N-(4-fluoro-3-(9-imino-7-methyl-2-(methylsulfonyl)-5,5-dioxido-5-thia-2,8-diazaspiro[3.5]nonan-7-yl)phenyl)-5-methoxypicolinamide], the inhibitory constant (Ki) in test [1] is 2.3 nM; in test [2] it was 6.5 nM.

Turning to `Cc1cc(C#N)cnc1C(=O)Nc1ccc(F)c([C@]2(C)CS(=O)(=O)C3(CNC3)C(=N)N2)c1` [Example 36e, 5-cyano-N-{4-fluoro-3-[(7R)-9-imino-7-methyl-5,5-dioxido-5-thia-2,8-diazaspiro[3.5]non-7-yl]phenyl}-3-methylpyridine-2-carboxamide], the inhibition constant (Ki) in test [1] was 1.8 nM; in test [2] it was 4.1 nM.

On to `CN1CCC2(CC1)C(=N)N[C@](C)(c1cc(NC(=O)c3ccc(OC(F)F)cn3)ccc1F)CS2(=O)=O` [Example 31, 5-(difluoromethoxy)-N-{4-fluoro-3-[(3R)-5-imino-3,9-dimethyl-1,1-dioxido-1-thia-4,9-diazaspiro[5.5]undec-3-yl]phenyl}pyridine-2-carboxamide], for which the inhibition constant (Ki) in test [1] is 27 nM; in test [2] it was 11 nM.

For the molecule `CN1CC2(C1)C(=N)N[C@](C)(c1cc(NC(=O)c3ccc(F)cn3)ccc1F)CS2(=O)=O` [Example 2, 5-fluoro-N-{4-fluoro-3-[(7R)-9-imino-2,7-dimethyl-5,5-dioxido-5-thia-2,8-diazaspiro[3.5]non-7-yl]phenyl}pyridine-2-carboxamide], the results for the Ki in test [1] and in test [2] were 1.2 nM and 6.1 nM, respectively.

Consider `COc1cnc(C(=O)Nc2ccc(F)c([C@]3(C)CS(=O)(=O)C4(CCN(C)CC4)C(=N)N3)c2)c(C)n1` [Example 34, N-{4-fluoro-3-[(3R)-5-imino-3,9-dimethyl-1,1-dioxido-1-thia-4,9-diazaspiro[5.5]undec-3-yl]phenyl}-5-methoxy-3-methylpyrazine-2-carboxamide], for which the Ki in test [1] is 23 nM; in test [2] it was 37 nM.

For `CN1CC2(C1)C(=N)N[C@](C)(c1cc(NC(=O)c3ccc(Cl)cn3)ccc1F)CS2(=O)=O` [Example 5, 5-chloro-N-{4-fluoro-3-[(7R)-9-imino-2,7-dimethyl-5,5-dioxido-5-thia-2,8-diazaspiro [3.5]non-7-yl]phenyl}pyridine-2-carboxamide], the Ki was 0.4 nM in test [1] and 2.2 nM in test [2].

As to `CN1CCC2(CC1)C(=N)N[C@](C)(c1cc(NC(=O)c3ccc(C#N)cn3)ccc1F)CS2(=O)=O` [Example 25, 5-cyano-N-{4-fluoro-3-[(3R)-5-imino-3,9-dimethyl-1,1-dioxido-1-thia-4,9-diazaspiro[5.5]undec-3-yl]phenyl}pyridine-2-carboxamide], the inhibition constant (Ki) in test [1] is 8.4 nM; in test [2], 6.4 nM.
